Laboratory results as given in patent publication US8318792B2, “Therapeutic agent for amyotrophic lateral sclerosis” (Nippon Medical School Foundation, priority 2006, dated 2012).

How the values were obtained:
Assay type in all cases: in vivo, mouse
G1H-G93A transgenic mice [1] = assay: Exercise tolerance test: extension reflex test; conditions: for Extension reflex test score: 5 mg/kg oral daily from 80th day (before onset), score 0-2
Description: (§1) The following five kinds of exercise tolerance tests were conducted every fifth day from the 70th day after birth to evaluate the ability to exercise in the respective exercise tolerance tests. That is, the days for the exercise tolerance tests were every fifth days, such as the 70th day, 75th day, 80th day, 85th day and so on, after birth. The exercise tolerance tests were conducted throughout the survival period, and the post-mortem evaluation was based on the definitions of the following five kinds of exercise tolerance tests.
As for extension reflex, extension of the hindlimbs is normally observed when a mouse is suspended in the air by its tail.
The evaluation of extension reflex test of the mice was performed based on the following criteria: Score 0=Extension reflex is recognized in both of the hindlimbs; Score 1=Extension reflex is recognized only one hindlimb; and Score 2=Extension reflex is not recognized in both of the hindlimbs. The post-mortem evaluation of the extension reflex test is defined as score 2.

G1H-G93A transgenic mice [2] = assay: Exercise tolerance test: footprint test; conditions: 5 mg/kg oral daily from 80th day (before onset), score 0-4
Description: as §1
Both hindlimbs of a mouse are dipped in a black ink bottle, and then the mouse is allowed to walk on white paper. The footprints of the two hindlimbs of the mouse after the walking are analyzed. […] The post-mortem evaluation of the footprint test is defined as score 4.

G1H-G93A transgenic mice [3] = assay: Exercise tolerance test: rotarod test; conditions: for Rotarod test score: 5 mg/kg oral daily from 80th day (before onset), score 0-3
Description: as §1
The apparatus used in the Rotarod test (Rota Rod Treadmill type 7600, Ugo Basile Co., Milano, Italy) is a rotating axle having a diameter of 3.6 cm, and this rotating axle is set up so as to have 16 revolution per minute (one rotation: 3.75 seconds). The period for which a mouse can remain on a rotating axle without falling is measured. The evaluation of the rotarod test for the mouse was performed based on the following criteria: Score 0=The time exceeds 60 seconds; Score 1=The time is more than 30 seconds and 60 seconds or less; Score 2=The time is more than 4 seconds and 30 seconds or less; and Score 3=The time is 4 seconds or less. The post-mortem evaluation of the rotarod test is defined as score 3.

G1H-G93A transgenic mice [4] = assay: Exercise tolerance test: beam balance test; conditions: 5 mg/kg oral daily from 80th day (before onset), score 0-2
Description: as §1
The apparatus used in the beam balance test is constructed by maintaining a wooden beam having a diameter of 1.5 cm horizontally, and installing platforms which serve as footholds, on the respective sides in a distance of 30 cm. A mouse is placed on the platform on one side, and the time taken by the mouse to cross over the beam which is 30 cm in length and to arrive at the platform on the opposite side is measured. The evaluation of the beam balance test for the mouse was performed based on the following criteria: Score 0=The time is 10 seconds or less; Score 1=The time is more than 10 seconds to 15 seconds; and Score 2=The time is more than 15 seconds, or the mouse falls down. The post-mortem evaluation of the beam balance test is defined as score 2.

[5] = from the 125th day to 140th day after birth

`Cc1nc(-c2ccc(OCC(C)C)c(C#N)c2)sc1C(=O)O` [compound (c), 2-[3-cyano-4-(2-methylpropoxy)phenyl]-4-methyl-5-thiazolecarboxylic acid] was tested, and the “Extension reflex test score” value (G1H-G93A transgenic mice [1]; 70th day after birth, 5 mg/kg) was 0.0±0.0, the “Extension reflex test score” value (G1H-G93A transgenic mice [1]; 75th day after birth, 5 mg/kg) was 0.0±0.0 and the “Extension reflex test score” value (G1H-G93A transgenic mice [1]; 80th day after birth, 5 mg/kg) was 0.0±0.0. The “Extension reflex test score” value (G1H-G93A transgenic mice [1]; 85th day after birth, 5 mg/kg) was 0.0±0.0, the “Extension reflex test score” value (G1H-G93A transgenic mice [1]; 90th day after birth, 5 mg/kg) was 0.0±0.0 and the “Extension reflex test score” value (G1H-G93A transgenic mice [1]; 95th day after birth, 5 mg/kg) was 0.0±0.0. For the same compound, the “Extension reflex test score” value (G1H-G93A transgenic mice [1]; 100th day after birth, 5 mg/kg) was 0.0±0.0, the “Extension reflex test score” value (G1H-G93A transgenic mice [1]; 105th day after birth, 5 mg/kg) was 0.0±0.0 and the “effect in extension reflex test as compared to placebo group” value (G1H-G93A transgenic mice [1]; 105th, 110th, 115th and 120th day, 5 mg/kg oral daily from 80th day after birth, Mann-Whitney's U test) was “significant effects”. The “Extension reflex test score” value (G1H-G93A transgenic mice [1]; 110th day after birth, 5 mg/kg) was 0.1±0.3, the “Extension reflex test score” value (G1H-G93A transgenic mice [1]; 115th day after birth, 5 mg/kg) was 0.5±0.5 and the “Extension reflex test score” value (G1H-G93A transgenic mice [1]; 120th day after birth, 5 mg/kg) was 1.1±0.6. For the same compound, the “Extension reflex test score” value (G1H-G93A transgenic mice [1]; 125th day after birth, 5 mg/kg) was 1.7±0.5, the “Extension reflex test score” value (G1H-G93A transgenic mice [1]; 130th day after birth) was 2.0 ± 0.0 and the “Extension reflex test score” value (G1H-G93A transgenic mice [1]; 135th day after birth) was 2.0 ± 0.0. For the same compound, the “Extension reflex test score” value (G1H-G93A transgenic mice [1]; 140th day after birth) was 2.0 ± 0.0, the “Extension reflex test score” value (G1H-G93A transgenic mice [1]; from the 130th day to 140th day after birth) was 2.0±0.0 and the Footprint test score (G1H-G93A transgenic mice [2]; 70th day after birth) was 0.0±0.0. For the same compound, the Footprint test score (G1H-G93A transgenic mice [2]; 75th day after birth) was 0.0±0.0, the Footprint test score (G1H-G93A transgenic mice [2]; 80th day after birth) was 0.0±0.0 and the Footprint test score (G1H-G93A transgenic mice [2]; 85th day after birth) was 0.0±0.0. The Footprint test score (G1H-G93A transgenic mice [2]; 90th day after birth) was 0.0±0.0, the Footprint test score (G1H-G93A transgenic mice [2]; 95th day after birth) was 0.0±0.0 and the Footprint test score (G1H-G93A transgenic mice [2]; 100th day after birth) was 0.0±0.0. For the same compound, the Footprint test score (G1H-G93A transgenic mice [2]; 105th day after birth) was 0.0±0.0, the Footprint test score (G1H-G93A transgenic mice [2]; 110th day after birth) was 0.1±0.3 and the Footprint test score (G1H-G93A transgenic mice [2]; 115th day after birth) was 0.7±0.8. For the same compound, the Footprint test score (G1H-G93A transgenic mice [2]; 120th day after birth) was 1.6±1.0, the Footprint test score (G1H-G93A transgenic mice [2]; 125th day after birth) was 2.7±0.5 and the Footprint test score (G1H-G93A transgenic mice [2]; 130th day after birth) was 3.3±0.5. The Footprint test score (G1H-G93A transgenic mice [2]; 135th day after birth) was 3.9±0.3, the Footprint test score (G1H-G93A transgenic mice [2]; 140th day after birth) was 4.0±0.0 and the Rotarod test score (G1H-G93A transgenic mice [3]; 70th day after birth, 5 mg/kg) was 0.0±0.0. It also gave a Rotarod test score (G1H-G93A transgenic mice [3]; 75th day after birth, 5 mg/kg) of 0.0±0.0, a Rotarod test score (G1H-G93A transgenic mice [3]; 80th day after birth, 5 mg/kg) of 0.0±0.0 and a Rotarod test score (G1H-G93A transgenic mice [3]; 85th day after birth, 5 mg/kg) of 0.0±0.0. For the same compound, the Rotarod test score (G1H-G93A transgenic mice [3]; 90th day after birth, 5 mg/kg) was 0.0±0.0, the Rotarod test score (G1H-G93A transgenic mice [3]; 95th day after birth, 5 mg/kg) was 0.0±0.0 and the Rotarod test score (G1H-G93A transgenic mice [3]; 100th day after birth, 5 mg/kg) was 0.0±0.0. For the same compound, the Rotarod test score (G1H-G93A transgenic mice [3]; 105th day after birth, 5 mg/kg) was 0.0±0.0, the “effect in rotarod test as compared to placebo group” value (G1H-G93A transgenic mice [3]; 105th, 110th and 115th day, 5 mg/kg oral daily from 80th day after birth, Mann-Whitney's U test) was “significant effects” and the Rotarod test score (G1H-G93A transgenic mice [3]; 110th day after birth, 5 mg/kg) was 0.4±0.8. For the same compound, the Rotarod test score (G1H-G93A transgenic mice [3]; 115th day after birth, 5 mg/kg) was 1.3±1.3, the Rotarod test score (G1H-G93A transgenic mice [3]; 120th day after birth, 5 mg/kg) was 2.5±0.5 and the Rotarod test score (G1H-G93A transgenic mice [3]; 125th day after birth) was 3.0 ± 0.0. The Rotarod test score (G1H-G93A transgenic mice [3]; 130th day after birth) was 3.0 ± 0.0, the Rotarod test score (G1H-G93A transgenic mice [3]; 135th day after birth) was 3.0 ± 0.0 and the Rotarod test score (G1H-G93A transgenic mice [3]; 140th day after birth) was 3.0 ± 0.0. For the same compound, the Rotarod test score (G1H-G93A transgenic mice [3]; [5]) was 3.0±0.0, the “Beam balance test score” value (G1H-G93A transgenic mice [4]; 70th day after birth, 5 mg/kg) was 0.0±0.0 and the “Beam balance test score” value (G1H-G93A transgenic mice [4]; 75th day after birth, 5 mg/kg) was 0.0±0.0. For the same compound, the “Beam balance test score” value (G1H-G93A transgenic mice [4]; 80th day after birth, 5 mg/kg) was 0.0±0.0, the “Beam balance test score” value (G1H-G93A transgenic mice [4]; 85th day after birth, 5 mg/kg) was 0.0±0.0 and the “Beam balance test score” value (G1H-G93A transgenic mice [4]; 90th day after birth, 5 mg/kg) was 0.0±0.0. For the same compound, the “Beam balance test score” value (G1H-G93A transgenic mice [4]; 95th day after birth, 5 mg/kg) was 0.0±0.0, the “Beam balance test score” value (G1H-G93A transgenic mice [4]; 100th day after birth, 5 mg/kg) was 0.0±0.0 and the “Beam balance test score” value (G1H-G93A transgenic mice [4]; 105th day after birth, 5 mg/kg) was 0.0±0.0. The “Beam balance test score” value (G1H-G93A transgenic mice [4]; 110th day after birth, 5 mg/kg) was 0.1±0.3, the “Beam balance test score” value (G1H-G93A transgenic mice [4]; 115th day after birth, 5 mg/kg) was 0.7±0.8 and the “Beam balance test score” value (G1H-G93A transgenic mice [4]; 120th day after birth, 5 mg/kg) was 1.4±0.7. For the same compound, the “Beam balance test score” value (G1H-G93A transgenic mice [4]; 125th day after birth) was 2.0 ± 0.0, the “Beam balance test score” value (G1H-G93A transgenic mice [4]; 130th day after birth) was 2.0 ± 0.0 and the “Beam balance test score” value (G1H-G93A transgenic mice [4]; 135th day after birth) was 2.0 ± 0.0. The “Beam balance test score” value (G1H-G93A transgenic mice [4]; 140th day after birth) was 2.0 ± 0.0 and the “Beam balance test score” value (G1H-G93A transgenic mice [4]; [5]) was 2.0±0.0.
